tested on: corn; assay: Pre-emergence compatibility with crop plants; format: in vivo; details: 320 grams per hectare, scored visually after 3 to 4 weeks
Text: (§1) Pre-emergence Herbicidal Action against Weed Plants and Compatibility with Crop Plants
(§2) Seeds or rhizome sections of mono- and dicotyledonous weed plants are set out in pots of 9 to 13 cm in diameter in sandy loam soil, and are covered with soil. The herbicides, formulated as emulsifiable concentrates or dusting products, are applied to the surface of the covering earth in different doses in the form of aqueous dispersions or suspensions or emulsions, at a water application rate of 300 to 800 I/ha (converted). The pots are then maintained under glass under optimum conditions for the further cultivation of the plants. After the trial plants have stood for 3 to 4 weeks under glass under optimum growth conditions, the effect of the inventive compounds is scored visually.

| SMILES | damage in corn |
| --- | --- |
| CCc1cc(Cl)cc(Br)c1-c1c(O)c2scnc2n(CC(F)F)c1=O [I-a-36] | do not exhibit any damage |
| C#CCn1c(=O)c(-c2c(Cl)cccc2Cl)c(O)c2scnc21 [I-a-44] | do not exhibit any damage |
| O=c1c(-c2c(Cl)ccc(Br)c2Cl)c(O)c2scnc2n1CC(F)F [I-a-75] | do not exhibit any damage |
| Cc1ccc(Cl)c(-c2c(O)c3scnc3n(CC(F)F)c2=O)c1Cl [I-a-89] | do not exhibit any damage |
| Cc1c(Br)ccc(Cl)c1-c1c(O)c2scnc2n(CC(F)F)c1=O [I-a-94] | do not exhibit any damage |
| Cc1cc(Br)cc(C)c1-c1c(O)c2scnc2n(CC(F)F)c1=O [I-a-97] | do not exhibit any damage |
| C=CCn1c(=O)c(-c2c(Br)cc(Cl)cc2CC)c(OC(=O)C(C)(C)C)c2scnc21 [I-b-22] | do not exhibit any damage |
| CCOC(=O)Oc1c(-c2c(C)cc(Br)cc2CC)c(=O)n(C)c2ncsc12 [I-c-38] | do not exhibit any damage |

tested on: oilseed rape; assay: Pre-emergence compatibility with crop plants; format: in vivo; details: 320 grams per hectare, scored visually after 3 to 4 weeks
Text: as §1, §2

| SMILES | damage in oilseed rape |
| --- | --- |
| C=CCn1c(=O)c(-c2c(C)cc(C)cc2C)c(O)c2scnc21 [I-a-2, 4-allyl-7-hydroxy-6-mesityl[1,3]thiazolo[4,5-b]pyridin-5(4H)-one] | do not exhibit any damage |
| C=CCn1c(=O)c(-c2c(Br)cc(Cl)cc2CC)c(O)c2cn(C)nc21 [I-a-28] | do not exhibit any damage |
| CCc1cc(Cl)cc(Br)c1-c1c(O)c2cn(C)nc2n(CC(F)F)c1=O [I-a-43] | do not exhibit any damage |

tested on: corn; assay: Post-emergence compatibility with crop plants; format: in vivo; details: 320 grams per hectare, scored visually after 3 to 4 weeks
Method: Post-emergence herbicidal action against weed plants and compatibility with crop plants Seeds of monocotyledonous and dicotyledonous weed plants are set out in cardboard pots in sandy loam soil, covered with soil, and cultivated under glass under good growth conditions. Two to three weeks after sowing, the trial plants are treated at the three-leaf stage. The inventive compounds, formulated as wettable powders or as emulsifiable concentrates, are sprayed onto the surface of the green parts of the plants, at a water application rate of 600 to 800 I/ha (converted). After the trial plants have stood for 3 to 4 weeks under glass under optimum growth conditions, the effect of the inventive compounds is scored visually.

| SMILES | damage in corn |
| --- | --- |
| CCc1cc(Cl)cc(Br)c1-c1c(O)c2scnc2n(CC(F)F)c1=O [I-a-36] | do not exhibit any damage |
| Cc1cc(C)c(-c2c(O)c3scnc3n(CC(F)F)c2=O)c(C)c1 [I-a-37] | do not exhibit any damage |
| C#CCn1c(=O)c(-c2c(Cl)cccc2Cl)c(O)c2scnc21 [I-a-44] | do not exhibit any damage |
| O=c1c(-c2c(Cl)ccc(C3CC3)c2Cl)c(O)c2scnc2n1CC(F)F [I-a-83] | do not exhibit any damage |
| Cc1ccc(Cl)c(-c2c(O)c3scnc3n(CC(F)(F)F)c2=O)c1Cl [I-a-86] | do not exhibit any damage |
| Cc1c(Br)ccc(Cl)c1-c1c(O)c2scnc2n(C)c1=O [I-a-93] | do not exhibit any damage |
| C[N+](C)(C)C.Cc1cc(C)c(-c2c([O-])c3scnc3n(CC(F)F)c2=O)c(C)c1 [I-g-5] | do not exhibit any damage |
| C#CCOc1c(-c2ccccc2C(F)(F)F)c(=O)n(CC#C)c2ncsc12 [I-h-11] | do not exhibit any damage |

Reference: patent US8686000B2, “Herbicidally active ketosultams and diketopyridines” (Bayer Cropscience AG, priority 2010, dated 2014)
